Test results taken from PubChem BioAssay (NCI).
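Tested at 5 concentrations; 48 h exposure; 96-well plates; endpoints linearly interpolated, else capped at highest concentration. Here, GI50 denotes the concentration required for 50% inhibition of growth. TGI denotes the concentration required for complete inhibition of growth.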

How the values were obtained:
Test in all cases: growth of human tumour cells (NCI), 48 h
A498 renal = test system: A498 renal
ACHN renal = test system: ACHN renal
BT-549 breast = test system: BT-549 breast
CAKI-1 renal = test system: CAKI-1 renal
COLO 205 colon = test system: COLO 205 colon
DU-145 prostate = test system: DU-145 prostate
EKVX NSCLC = test system: EKVX NSCLC
HCC-2998 colon = test system: HCC-2998 colon
HCT-15 colon = test system: HCT-15 colon
HOP-62 NSCLC = test system: HOP-62 NSCLC
HOP-92 NSCLC = test system: HOP-92 NSCLC
HS 578T breast = test system: HS 578T breast
IGROV1 ovarian = test system: IGROV1 ovarian
K-562 leukemia = test system: K-562 leukemia
KM12 colon = test system: KM12 colon
LOX IMVI melanoma = test system: LOX IMVI melanoma
MALME-3M melanoma = test system: MALME-3M melanoma
MCF7 breast = test system: MCF7 breast
MDA-MB-231 breast = test system: MDA-MB-231 breast
MDA-MB-435 = test system: MDA-MB-435
MOLT-4 leukemia = test system: MOLT-4 leukemia
NCI-H226 lung = test system: NCI-H226 lung
NCI-H23 lung = test system: NCI-H23 lung
NCI-H460 lung = test system: NCI-H460 lung
NCI/ADR-RES ovarian = test system: NCI/ADR-RES ovarian
OVCAR-3 ovarian = test system: OVCAR-3 ovarian
OVCAR-4 ovarian = test system: OVCAR-4 ovarian
OVCAR-5 ovarian = test system: OVCAR-5 ovarian
PC-3 prostate = test system: PC-3 prostate
RXF 393 renal = test system: RXF 393 renal
SF-268 CNS = test system: SF-268 CNS
SF-295 CNS = test system: SF-295 CNS
SF-539 CNS = test system: SF-539 CNS
SK-MEL-2 melanoma = test system: SK-MEL-2 melanoma
SK-MEL-28 melanoma = test system: SK-MEL-28 melanoma
SK-MEL-5 melanoma = test system: SK-MEL-5 melanoma
SK-OV-3 ovarian = test system: SK-OV-3 ovarian
SN12C renal = test system: SN12C renal
SNB-19 CNS = test system: SNB-19 CNS
SNB-75 CNS = test system: SNB-75 CNS
SW-620 colon = test system: SW-620 colon
T-47D breast = test system: T-47D breast
TK-10 renal = test system: TK-10 renal
UACC-257 melanoma = test system: UACC-257 melanoma
UACC-62 melanoma = test system: UACC-62 melanoma
UO-31 renal = test system: UO-31 renal

CCN(CC)CCNC(=O)c1cn2ncnc(Oc3ccc(NC(=O)Nc4ccc(Cl)c(C(F)(F)F)c4)cc3)c2c1C
GI50 (A498 renal): 1390 nM | TGI (A498 renal): 2740 nM | GI50 (ACHN renal): 1730 nM | TGI (ACHN renal): 3100 nM | GI50 (BT-549 breast): 1610 nM | TGI (BT-549 breast): 3090 nM | GI50 (CAKI-1 renal): 1670 nM | TGI (CAKI-1 renal): 3070 nM | GI50 (COLO 205 colon): 1780 nM | TGI (COLO 205 colon): 3560 nM | GI50 (DU-145 prostate): 1690 nM | TGI (DU-145 prostate): 3100 nM | GI50 (EKVX NSCLC): 1690 nM | TGI (EKVX NSCLC): 3120 nM | GI50 (HCC-2998 colon): 2240 nM | TGI (HCC-2998 colon): 3920 nM | GI50 (HCT-15 colon): 1620 nM | TGI (HCT-15 colon): 3100 nM | GI50 (HOP-62 NSCLC): 1760 nM | TGI (HOP-62 NSCLC): 3560 nM | GI50 (HOP-92 NSCLC): 1190 nM | TGI (HOP-92 NSCLC): 2690 nM | GI50 (HS 578T breast): 1490 nM | TGI (HS 578T breast): 3920 nM | GI50 (IGROV1 ovarian): 1690 nM | TGI (IGROV1 ovarian): 3240 nM | GI50 (K-562 leukemia): 383 nM | TGI (K-562 leukemia): 1650 nM | GI50 (KM12 colon): 1690 nM | TGI (KM12 colon): 3250 nM | GI50 (LOX IMVI melanoma): 1360 nM | TGI (LOX IMVI melanoma): 2820 nM | GI50 (MALME-3M melanoma): 1290 nM | TGI (MALME-3M melanoma): 2840 nM | GI50 (MCF7 breast): 1220 nM | TGI (MCF7 breast): 2770 nM | GI50 (MDA-MB-231 breast): 1870 nM | TGI (MDA-MB-231 breast): 3520 nM | GI50 (MDA-MB-435): 1630 nM | TGI (MDA-MB-435): 3000 nM | GI50 (MOLT-4 leukemia): 738 nM | TGI (MOLT-4 leukemia): 2400 nM | GI50 (NCI-H226 lung): 1760 nM | TGI (NCI-H226 lung): 3890 nM | GI50 (NCI-H23 lung): 1800 nM | TGI (NCI-H23 lung): 3490 nM | GI50 (NCI-H460 lung): 1720 nM | TGI (NCI-H460 lung): 3320 nM | GI50 (NCI/ADR-RES ovarian): 1980 nM | TGI (NCI/ADR-RES ovarian): 3820 nM | GI50 (OVCAR-3 ovarian): 1930 nM | TGI (OVCAR-3 ovarian): 3510 nM | GI50 (OVCAR-4 ovarian): 1790 nM | TGI (OVCAR-4 ovarian): 3420 nM | GI50 (OVCAR-5 ovarian): 1990 nM | TGI (OVCAR-5 ovarian): 3480 nM | GI50 (PC-3 prostate): 1310 nM | TGI (PC-3 prostate): 2800 nM | GI50 (RXF 393 renal): 1490 nM | TGI (RXF 393 renal): 3020 nM | GI50 (SF-268 CNS): 1590 nM | TGI (SF-268 CNS): 3140 nM | GI50 (SF-295 CNS): 1800 nM | TGI (SF-295 CNS): 3330 nM | GI50 (SF-539 CNS): 1100 nM | TGI (SF-539 CNS): 2320 nM | GI50 (SK-MEL-2 melanoma): 1970 nM | TGI (SK-MEL-2 melanoma): 4150 nM | GI50 (SK-MEL-28 melanoma): 1480 nM | TGI (SK-MEL-28 melanoma): 2800 nM | GI50 (SK-MEL-5 melanoma): 1760 nM | TGI (SK-MEL-5 melanoma): 3220 nM | GI50 (SK-OV-3 ovarian): 1850 nM | TGI (SK-OV-3 ovarian): 3460 nM | GI50 (SN12C renal): 1600 nM | TGI (SN12C renal): 3140 nM | GI50 (SNB-19 CNS): 1860 nM | TGI (SNB-19 CNS): 3270 nM | GI50 (SNB-75 CNS): 64.5 nM | TGI (SNB-75 CNS): 1520 nM | GI50 (SW-620 colon): 2230 nM | TGI (SW-620 colon): 3960 nM | GI50 (T-47D breast): 1800 nM | TGI (T-47D breast): 4420 nM | GI50 (TK-10 renal): 2110 nM | TGI (TK-10 renal): 3920 nM | GI50 (UACC-257 melanoma): 1630 nM | TGI (UACC-257 melanoma): 3420 nM | GI50 (UACC-62 melanoma): 1810 nM | TGI (UACC-62 melanoma): 3430 nM | GI50 (UO-31 renal): 1720 nM | TGI (UO-31 renal): 3150 nM
